From the NIST ThermoML archive (doi:10.1021/je200811n)
± gives the expanded uncertainty stated by the source.

Settings: Hot wire method

F/C=C/C(F)(F)F [trans-1,3,3,3-tetrafluoropropene]
Settings | thermal conductivity [W/m/K]
262.32 K, 98 kPa, Gas | 0.01085 ± 0.00037
262.32 K, 15456 kPa, Liquid | 0.09473 ± 0.001
262.36 K, 10416 kPa, Liquid | 0.09243 ± 0.001
262.42 K, 488 kPa, Liquid | 0.08745 ± 0.00096
262.42 K, 5301 kPa, Liquid | 0.08997 ± 0.00098
262.42 K, 21223 kPa, Liquid | 0.09713 ± 0.0011
262.45 K, 15452 kPa, Liquid | 0.09456 ± 0.001
262.49 K, 10417 kPa, Liquid | 0.09221 ± 0.001
262.56 K, 488 kPa, Liquid | 0.08718 ± 0.00096
262.56 K, 5298 kPa, Liquid | 0.08972 ± 0.00098
262.61 K, 123 kPa, Gas | 0.01085 ± 0.00037
262.62 K, 107 kPa, Gas | 0.01086 ± 0.00038
262.63 K, 98 kPa, Gas | 0.01084 ± 0.00037
262.65 K, 80 kPa, Gas | 0.01085 ± 0.00037
262.67 K, 97 kPa, Gas | 0.01087 ± 0.00038
262.79 K, 21214 kPa, Liquid | 0.0972 ± 0.0011
262.84 K, 15455 kPa, Liquid | 0.09447 ± 0.001
262.89 K, 10416 kPa, Liquid | 0.0922 ± 0.001
262.96 K, 5304 kPa, Liquid | 0.0897 ± 0.00098
262.96 K, 21225 kPa, Liquid | 0.09681 ± 0.001
262.98 K, 488 kPa, Liquid | 0.08717 ± 0.00095
262.99 K, 121 kPa, Gas | 0.0108 ± 0.00037
263 K, 15446 kPa, Liquid | 0.0942 ± 0.001
263.01 K, 106 kPa, Gas | 0.01081 ± 0.00037
263.02 K, 97 kPa, Gas | 0.01085 ± 0.00037
263.04 K, 80 kPa, Gas | 0.01079 ± 0.00037
263.05 K, 98 kPa, Gas | 0.01086 ± 0.00038
263.06 K, 10416 kPa, Liquid | 0.09188 ± 0.001
263.13 K, 5299 kPa, Liquid | 0.08937 ± 0.00098
263.16 K, 488 kPa, Liquid | 0.08692 ± 0.00095
263.36 K, 21219 kPa, Liquid | 0.09681 ± 0.0011
263.39 K, 119 kPa, Gas | 0.01089 ± 0.00038
263.4 K, 15447 kPa, Liquid | 0.0942 ± 0.001
263.42 K, 104 kPa, Gas | 0.01088 ± 0.00038
263.43 K, 97 kPa, Gas | 0.01089 ± 0.00038
263.45 K, 80 kPa, Gas | 0.01089 ± 0.00038
263.45 K, 98 kPa, Gas | 0.01081 ± 0.00037
263.48 K, 10415 kPa, Liquid | 0.09186 ± 0.001
263.55 K, 21219 kPa, Liquid | 0.09652 ± 0.001
263.56 K, 5297 kPa, Liquid | 0.08933 ± 0.00098
263.59 K, 488 kPa, Liquid | 0.08681 ± 0.00095
263.6 K, 15455 kPa, Liquid | 0.09401 ± 0.001
263.68 K, 10416 kPa, Liquid | 0.09153 ± 0.001
263.77 K, 5291 kPa, Liquid | 0.08901 ± 0.00098
263.8 K, 488 kPa, Liquid | 0.08652 ± 0.00095
272.01 K, 173 kPa, Gas | 0.01193 ± 0.00041
272.22 K, 93 kPa, Gas | 0.01165 ± 0.0004
272.23 K, 118 kPa, Gas | 0.01168 ± 0.0004
272.23 K, 164 kPa, Gas | 0.01178 ± 0.0004
272.24 K, 170 kPa, Gas | 0.01181 ± 0.00041
272.27 K, 80 kPa, Gas | 0.01132 ± 0.00039
272.44 K, 180 kPa, Gas | 0.01146 ± 0.00039
272.47 K, 93 kPa, Gas | 0.01156 ± 0.0004
272.47 K, 117 kPa, Gas | 0.01157 ± 0.0004
272.47 K, 162 kPa, Gas | 0.01169 ± 0.0004
272.51 K, 78 kPa, Gas | 0.01132 ± 0.00039
272.73 K, 92 kPa, Gas | 0.01149 ± 0.00039
272.73 K, 159 kPa, Gas | 0.01161 ± 0.0004
272.74 K, 116 kPa, Gas | 0.0115 ± 0.0004
272.74 K, 177 kPa, Gas | 0.01151 ± 0.0004
272.76 K, 76 kPa, Gas | 0.01132 ± 0.00039
272.99 K, 157 kPa, Gas | 0.01156 ± 0.0004
273 K, 90 kPa, Gas | 0.01144 ± 0.00039
273.01 K, 114 kPa, Gas | 0.01146 ± 0.00039
273.03 K, 74 kPa, Gas | 0.01133 ± 0.00039
273.1 K, 175 kPa, Gas | 0.01153 ± 0.0004
273.28 K, 154 kPa, Gas | 0.01152 ± 0.0004
273.29 K, 89 kPa, Gas | 0.01139 ± 0.00039
273.3 K, 112 kPa, Gas | 0.01142 ± 0.00039
273.31 K, 73 kPa, Gas | 0.01134 ± 0.00039
273.47 K, 172 kPa, Gas | 0.01157 ± 0.0004
273.48 K, 166 kPa, Gas | 0.0116 ± 0.0004
273.58 K, 119 kPa, Gas | 0.01167 ± 0.0004
273.62 K, 94 kPa, Gas | 0.01167 ± 0.0004
273.64 K, 84 kPa, Gas | 0.01168 ± 0.0004
273.88 K, 163 kPa, Gas | 0.0116 ± 0.0004
274 K, 118 kPa, Gas | 0.01166 ± 0.0004
274.07 K, 93 kPa, Gas | 0.01171 ± 0.0004
274.08 K, 78 kPa, Gas | 0.01173 ± 0.0004
274.32 K, 160 kPa, Gas | 0.01166 ± 0.0004
274.45 K, 116 kPa, Gas | 0.01173 ± 0.0004
274.52 K, 92 kPa, Gas | 0.01174 ± 0.0004
274.54 K, 77 kPa, Gas | 0.01173 ± 0.0004
274.78 K, 158 kPa, Gas | 0.01168 ± 0.0004
274.92 K, 115 kPa, Gas | 0.01175 ± 0.0004
275.01 K, 91 kPa, Gas | 0.01175 ± 0.0004
275.03 K, 75 kPa, Gas | 0.01176 ± 0.0004
275.27 K, 155 kPa, Gas | 0.01171 ± 0.0004
275.43 K, 113 kPa, Gas | 0.01179 ± 0.0004
275.53 K, 90 kPa, Gas | 0.0118 ± 0.0004
275.55 K, 73 kPa, Gas | 0.01186 ± 0.00041
281.19 K, 491 kPa, Liquid | 0.08061 ± 0.00089
281.19 K, 20251 kPa, Liquid | 0.09143 ± 0.001
281.22 K, 15223 kPa, Liquid | 0.08878 ± 0.00097
281.25 K, 10286 kPa, Liquid | 0.08621 ± 0.00094
281.25 K, 23293 kPa, Liquid | 0.09262 ± 0.001
281.26 K, 20239 kPa, Liquid | 0.09104 ± 0.001
281.27 K, 458 kPa, Liquid | 0.08057 ± 0.0009
281.27 K, 5355 kPa, Liquid | 0.08361 ± 0.00092
281.29 K, 15230 kPa, Liquid | 0.0886 ± 0.00097
281.32 K, 10282 kPa, Liquid | 0.08605 ± 0.00094
281.34 K, 5380 kPa, Liquid | 0.08336 ± 0.00092
281.37 K, 102 kPa, Gas | 0.01233 ± 0.00042
281.37 K, 144 kPa, Gas | 0.01241 ± 0.00042
281.37 K, 199 kPa, Gas | 0.01253 ± 0.00043
281.37 K, 244 kPa, Gas | 0.01266 ± 0.00043
281.57 K, 23287 kPa, Liquid | 0.09254 ± 0.001
281.59 K, 243 kPa, Gas | 0.01263 ± 0.00043
281.59 K, 20208 kPa, Liquid | 0.09091 ± 0.00099
281.6 K, 199 kPa, Gas | 0.01245 ± 0.00043
281.61 K, 101 kPa, Gas | 0.01221 ± 0.00042
281.61 K, 142 kPa, Gas | 0.0123 ± 0.0004

Liquid
Settings | thermal conductivity [W/m/K]
263.15 K | 0.08688 ± 0.00055
273.15 K | 0.08321 ± 0.00053
